A short description of assay [1]: M. tuberculosis H37Rv growth inhibitors, H37Rv strain (AID 1626). Type of assay: functional.
Assay [2] can be described thus: growth suppression of beta-catenin-knockout colon cells, dose response, cell-based, HCT116, human colon tumor (AID 1045).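 Note: HCT116 colon tumor cells with beta catenin knocked out; cells exposed to compound for 60 hours.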 Type of assay: functional.
The target in assay [3] is Protein-tyrosine kinase 2-beta (Homo sapiens, UniProt Q14289).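 Note: potency of inhibitors of PYK2 kinase phosphorylation of poly-GT substrate.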
Protein-tyrosine kinase 2-beta, sequence (Q14289 whole entry): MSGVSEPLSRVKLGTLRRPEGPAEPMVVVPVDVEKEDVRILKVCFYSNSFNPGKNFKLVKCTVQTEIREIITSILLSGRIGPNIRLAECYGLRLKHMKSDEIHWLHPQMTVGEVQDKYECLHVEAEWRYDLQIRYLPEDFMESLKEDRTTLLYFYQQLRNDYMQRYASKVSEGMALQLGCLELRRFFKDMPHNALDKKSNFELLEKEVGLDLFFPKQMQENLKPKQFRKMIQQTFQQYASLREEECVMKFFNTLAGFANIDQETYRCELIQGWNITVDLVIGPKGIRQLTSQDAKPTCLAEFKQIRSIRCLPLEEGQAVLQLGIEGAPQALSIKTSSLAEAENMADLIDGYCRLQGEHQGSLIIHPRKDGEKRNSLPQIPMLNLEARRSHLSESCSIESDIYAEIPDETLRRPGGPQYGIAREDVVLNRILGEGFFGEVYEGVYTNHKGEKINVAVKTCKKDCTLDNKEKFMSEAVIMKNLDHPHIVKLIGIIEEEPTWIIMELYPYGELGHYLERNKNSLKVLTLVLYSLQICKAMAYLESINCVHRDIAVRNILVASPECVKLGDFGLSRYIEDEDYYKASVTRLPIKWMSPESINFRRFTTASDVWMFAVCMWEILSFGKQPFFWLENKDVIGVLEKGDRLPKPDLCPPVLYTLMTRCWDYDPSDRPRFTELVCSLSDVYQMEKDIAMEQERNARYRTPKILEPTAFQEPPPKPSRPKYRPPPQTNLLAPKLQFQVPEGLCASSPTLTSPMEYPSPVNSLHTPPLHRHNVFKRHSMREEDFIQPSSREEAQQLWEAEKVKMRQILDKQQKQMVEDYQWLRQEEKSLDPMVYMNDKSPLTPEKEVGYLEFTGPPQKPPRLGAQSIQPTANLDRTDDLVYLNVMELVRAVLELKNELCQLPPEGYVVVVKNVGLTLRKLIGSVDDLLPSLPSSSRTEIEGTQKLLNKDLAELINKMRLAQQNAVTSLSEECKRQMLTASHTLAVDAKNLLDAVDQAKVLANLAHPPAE
Assay [4] deals with 26S proteasome non-ATPase regulatory subunit 14 (Homo sapiens, UniProt O00487). Description: inhibition of proteasome subunit RPN11 – biochemical, fluorescence polarization, uHTS hits, confirmation (AID 602368). Type of assay: functional. Background: In fluorescence polarisation assays a small probe gives low polarisation when free and higher when bound to something large.
26S proteasome non-ATPase regulatory subunit 14, sequence (O00487 whole entry): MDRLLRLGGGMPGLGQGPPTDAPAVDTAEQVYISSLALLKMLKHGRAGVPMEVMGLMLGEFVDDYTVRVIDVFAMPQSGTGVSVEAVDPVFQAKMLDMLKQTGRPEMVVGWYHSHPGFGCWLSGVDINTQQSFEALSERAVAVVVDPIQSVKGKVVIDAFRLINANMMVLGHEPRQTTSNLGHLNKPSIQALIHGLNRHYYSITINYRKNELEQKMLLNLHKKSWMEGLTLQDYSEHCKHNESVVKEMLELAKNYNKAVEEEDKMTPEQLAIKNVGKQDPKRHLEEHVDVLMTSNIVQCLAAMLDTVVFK
The nature of assay [5]: NIH-3T3 fibroblast cytotoxicity, dose response, cytotoxicity control, cell-based, fluorescence, Alamar Blue, secondary assay (AID 2327).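 Note: NIH-3T3 mouse fibroblasts cultured with fluconazole at 8 µg/mL.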 Type of assay: functional. (In general: Alamar Blue is a resazurin reagent that responds to reducing activity.)
In assay [6] the target is T1, Serine/threonine-protein phosphatase (Candida dubliniensis (strain CD36 / CBS 7987 / NCPF 3949 / NRRLY-17841) (Yeast), UniProt B9W6M3).
T1 sequence (B9W6M3 whole entry): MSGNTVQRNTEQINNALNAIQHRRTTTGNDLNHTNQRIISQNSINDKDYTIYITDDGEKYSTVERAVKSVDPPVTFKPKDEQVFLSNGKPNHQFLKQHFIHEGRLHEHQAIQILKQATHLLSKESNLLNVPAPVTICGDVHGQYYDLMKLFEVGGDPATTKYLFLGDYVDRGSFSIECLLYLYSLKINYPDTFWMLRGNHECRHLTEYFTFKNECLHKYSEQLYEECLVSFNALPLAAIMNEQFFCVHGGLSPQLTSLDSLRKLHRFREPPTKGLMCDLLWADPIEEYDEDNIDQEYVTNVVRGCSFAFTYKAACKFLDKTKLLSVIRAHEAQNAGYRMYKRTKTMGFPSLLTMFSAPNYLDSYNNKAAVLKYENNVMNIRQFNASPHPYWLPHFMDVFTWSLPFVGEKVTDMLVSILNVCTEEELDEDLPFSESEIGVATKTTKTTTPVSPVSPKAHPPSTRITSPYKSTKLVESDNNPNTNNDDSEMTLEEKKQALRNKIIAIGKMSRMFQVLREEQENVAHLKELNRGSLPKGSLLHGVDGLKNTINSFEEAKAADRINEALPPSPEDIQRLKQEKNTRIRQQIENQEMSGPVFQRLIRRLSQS
Description: calcineurin pathway inhibitors in yeast reporter, dose response, S. cerevisiae, CDRE-lacZ, luminescence, secondary (AID 2388).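 Note: yeast reporter cells carrying a calcineurin-responsive lacZ construct stimulated with calcium chloride; luminescent beta-galactosidase reporter signal in whole cells rather than isolated phosphatase activity; potency for inhibition where a drop in reporter signal means calcineurin blockade.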 The format is functional, cell-based.

Assay [7] has as its target T2, RNA-binding protein pos-1 (Caenorhabditis elegans, UniProt G5EF15).
T2 sequence (G5EF15 whole entry): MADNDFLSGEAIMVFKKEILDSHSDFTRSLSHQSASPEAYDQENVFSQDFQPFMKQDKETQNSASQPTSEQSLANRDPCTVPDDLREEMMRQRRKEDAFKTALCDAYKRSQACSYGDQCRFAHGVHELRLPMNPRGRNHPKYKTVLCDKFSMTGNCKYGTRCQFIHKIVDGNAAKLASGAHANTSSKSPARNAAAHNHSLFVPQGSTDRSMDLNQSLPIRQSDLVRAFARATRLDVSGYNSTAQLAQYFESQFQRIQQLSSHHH
The assay can be described thus: inhibitors of POS-1/mex-3 RNA binding, dose response, biochemical, fluorescence polarization (AID 1964).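 Note: purified POS-1 fused to maltose binding protein made in E. coli; potency of compounds blocking POS-1 binding to fluorescent RNA.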

In assay [8] the target is 72 kDa type IV collagenase (Homo sapiens, UniProt P08253). Description: Dose Response validation of uHTS RPN11 inhibitor hits using a MMP-2 Fluorescence assay. The format is functional.
72 kDa type IV collagenase, sequence (P08253 whole entry): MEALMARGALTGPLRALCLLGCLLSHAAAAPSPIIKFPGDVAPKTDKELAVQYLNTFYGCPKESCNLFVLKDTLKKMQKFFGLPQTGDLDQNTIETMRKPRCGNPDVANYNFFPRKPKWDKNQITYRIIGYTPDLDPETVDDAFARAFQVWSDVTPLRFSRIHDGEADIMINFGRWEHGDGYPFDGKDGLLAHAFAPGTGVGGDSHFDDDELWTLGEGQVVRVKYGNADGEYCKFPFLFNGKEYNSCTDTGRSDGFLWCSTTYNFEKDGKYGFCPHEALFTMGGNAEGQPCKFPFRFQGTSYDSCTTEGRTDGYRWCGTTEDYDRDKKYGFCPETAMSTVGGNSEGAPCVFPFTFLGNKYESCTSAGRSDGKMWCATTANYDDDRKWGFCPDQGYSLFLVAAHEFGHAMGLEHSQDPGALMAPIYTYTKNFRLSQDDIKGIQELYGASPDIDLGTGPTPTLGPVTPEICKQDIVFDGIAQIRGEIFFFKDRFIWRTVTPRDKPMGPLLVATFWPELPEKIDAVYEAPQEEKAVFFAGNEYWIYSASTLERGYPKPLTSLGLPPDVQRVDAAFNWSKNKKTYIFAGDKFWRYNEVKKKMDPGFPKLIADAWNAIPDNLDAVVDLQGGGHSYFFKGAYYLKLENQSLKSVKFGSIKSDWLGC
For assay [9], the target named is T3, Zinc finger protein mex-5 (Caenorhabditis elegans, UniProt Q9XUB2).
T3 sequence (Q9XUB2 whole entry): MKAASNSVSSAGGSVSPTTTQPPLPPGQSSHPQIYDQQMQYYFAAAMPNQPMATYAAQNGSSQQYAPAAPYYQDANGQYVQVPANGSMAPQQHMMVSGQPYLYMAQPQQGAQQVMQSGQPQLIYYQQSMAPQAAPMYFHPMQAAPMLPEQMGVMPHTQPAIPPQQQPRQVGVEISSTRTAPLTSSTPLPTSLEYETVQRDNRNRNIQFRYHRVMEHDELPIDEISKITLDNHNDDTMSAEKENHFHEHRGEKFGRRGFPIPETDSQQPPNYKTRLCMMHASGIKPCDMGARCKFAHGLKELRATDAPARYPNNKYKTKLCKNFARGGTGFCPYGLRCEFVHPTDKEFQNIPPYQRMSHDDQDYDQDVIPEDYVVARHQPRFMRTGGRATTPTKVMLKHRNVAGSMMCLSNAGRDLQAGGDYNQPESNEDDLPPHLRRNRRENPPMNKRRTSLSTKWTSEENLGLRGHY
Description: MEX-5/TCR-2 RNA interaction inhibitors, dose response, biochemical, C. elegans, fluorescence polarization (AID 1960).

The target in assay [10] is Prothrombin (Bos taurus, UniProt P00735). The assay can be described thus: thrombin inhibition, dose response, biochemical, fluorescence polarization, uHTS hits (AID 602369). Type of assay: functional.
The target in assay [11] is ATP-dependent molecular chaperone HSP82 (Candida albicans (strain WO-1) (Yeast), UniProt C4YTQ8). Description: loss of DOC-induced GRE-beta-galactosidase reporter signal, dose response, Hsp90 inhibitor project, S. cerevisiae, luminescence (AID 2400).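 Note: beta-galactosidase luminescence from glucocorticoid response element reporter as proxy for Hsp90 function; inhibitor potency where signal loss means Hsp90 inhibition.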 Type of assay: functional, cell-based.
ATP-dependent molecular chaperone HSP82, sequence (C4YTQ8 whole entry): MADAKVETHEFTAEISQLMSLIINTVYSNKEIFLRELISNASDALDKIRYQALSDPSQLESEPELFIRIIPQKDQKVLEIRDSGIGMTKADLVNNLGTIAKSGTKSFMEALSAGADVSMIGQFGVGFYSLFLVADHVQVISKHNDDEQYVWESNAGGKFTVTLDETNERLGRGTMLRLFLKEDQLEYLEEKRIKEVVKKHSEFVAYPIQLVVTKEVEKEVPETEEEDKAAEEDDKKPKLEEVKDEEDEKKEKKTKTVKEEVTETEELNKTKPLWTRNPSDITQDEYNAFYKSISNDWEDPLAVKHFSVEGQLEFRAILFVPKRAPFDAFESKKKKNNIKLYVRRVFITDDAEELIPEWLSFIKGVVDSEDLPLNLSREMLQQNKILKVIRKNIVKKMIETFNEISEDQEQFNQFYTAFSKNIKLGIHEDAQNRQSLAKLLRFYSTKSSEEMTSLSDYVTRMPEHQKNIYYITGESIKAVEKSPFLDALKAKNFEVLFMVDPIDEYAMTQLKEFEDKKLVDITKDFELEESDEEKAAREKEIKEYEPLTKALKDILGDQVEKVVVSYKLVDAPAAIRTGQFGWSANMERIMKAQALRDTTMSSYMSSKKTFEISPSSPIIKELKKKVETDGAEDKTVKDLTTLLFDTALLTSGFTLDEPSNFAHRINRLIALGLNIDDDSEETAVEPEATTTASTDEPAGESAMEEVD
Assay [12] is described as follows: C. albicans growth with fluconazole, confirmation, fluorescence, retest (AID 2467). Type of assay: functional, cell-based.
A short description of assay [13]: growth suppression of PTEN-null colon cells, dose response, cell-based, HCT116 PTEN knockout (AID 1047).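 Note: HCT116 colon tumor cells with PTEN knocked out; cells exposed to compound for 60 hours before readout; potency for loss of cell viability measured by luminescence.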 The format is functional.
In assay [14] the target is Estrogen receptor beta (Homo sapiens, UniProt Q92731). The assay can be described thus: ERβ–SRC-3 coactivator interaction inhibitors, confirmation, orthogonal assay, biochemical, ELISA, streptavidin-HRP readout (AID 1060). Background: ELISA stands for enzyme-linked immunosorbent assay.
Estrogen receptor beta, sequence (Q92731 whole entry): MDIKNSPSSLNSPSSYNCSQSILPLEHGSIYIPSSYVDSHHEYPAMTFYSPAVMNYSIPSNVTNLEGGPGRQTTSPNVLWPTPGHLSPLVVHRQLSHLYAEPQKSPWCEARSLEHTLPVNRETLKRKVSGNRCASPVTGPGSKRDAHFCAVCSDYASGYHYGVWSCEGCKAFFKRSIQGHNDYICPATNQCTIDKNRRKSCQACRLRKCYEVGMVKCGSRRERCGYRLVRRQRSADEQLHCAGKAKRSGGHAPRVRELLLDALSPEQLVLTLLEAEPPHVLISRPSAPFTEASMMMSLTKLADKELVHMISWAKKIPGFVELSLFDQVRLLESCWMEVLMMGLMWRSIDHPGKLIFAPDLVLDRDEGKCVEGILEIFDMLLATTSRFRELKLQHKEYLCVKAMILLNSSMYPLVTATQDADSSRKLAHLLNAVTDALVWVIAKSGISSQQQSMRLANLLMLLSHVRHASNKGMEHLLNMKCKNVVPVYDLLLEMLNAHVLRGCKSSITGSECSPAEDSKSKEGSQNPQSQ
For assay [15], the target named is T4, Estrogen receptor (Homo sapiens, UniProt P03372).
T4 sequence (P03372 whole entry): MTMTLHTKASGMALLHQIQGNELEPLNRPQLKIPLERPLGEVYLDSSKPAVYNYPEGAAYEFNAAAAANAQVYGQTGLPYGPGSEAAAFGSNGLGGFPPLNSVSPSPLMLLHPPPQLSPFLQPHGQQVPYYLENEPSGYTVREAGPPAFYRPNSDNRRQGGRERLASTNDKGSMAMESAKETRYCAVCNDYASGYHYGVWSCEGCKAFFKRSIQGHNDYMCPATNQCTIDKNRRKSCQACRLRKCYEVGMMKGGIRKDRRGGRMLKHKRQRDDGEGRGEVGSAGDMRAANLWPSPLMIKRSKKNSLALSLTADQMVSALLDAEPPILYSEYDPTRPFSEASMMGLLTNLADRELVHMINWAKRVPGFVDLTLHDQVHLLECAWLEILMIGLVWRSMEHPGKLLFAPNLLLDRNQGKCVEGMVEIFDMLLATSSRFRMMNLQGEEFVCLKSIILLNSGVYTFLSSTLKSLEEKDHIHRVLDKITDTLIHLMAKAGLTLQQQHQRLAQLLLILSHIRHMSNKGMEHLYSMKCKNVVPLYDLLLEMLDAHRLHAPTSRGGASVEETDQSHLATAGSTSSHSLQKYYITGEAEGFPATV
Description: ERα–SRC-3 coactivator interaction inhibitors, confirmation, orthogonal assay, biochemical, ELISA, streptavidin-HRP readout (AID 1079).

Assay [16] concerns the target Bcl-2-like protein 10 (Homo sapiens, UniProt Q9HD36). Description: Biochemical TR3 FP assay of Bcl-B inhibitor potency, EC50 (AID 1243). Type of assay: functional.
For assay [17], the target named is Aspartyl aminopeptidase (Plasmodium falciparum 3D7, UniProt Q8I2J3). Description: Counterscreen for inhibitors of M1 and M17 aminopeptidases: QFRET-based biochemical high throughput dose response assay for inhibitors of the Plasmodium falciparum M18 Aspartyl Aminopeptidase (PFM18AAP). [Related PubChem assays: 1619 (Screening assay (M17LAP inhibitors).), 1445 (Screening assay (M1AAP inhibitors).)].
Aspartyl aminopeptidase, sequence (Q8I2J3 whole entry): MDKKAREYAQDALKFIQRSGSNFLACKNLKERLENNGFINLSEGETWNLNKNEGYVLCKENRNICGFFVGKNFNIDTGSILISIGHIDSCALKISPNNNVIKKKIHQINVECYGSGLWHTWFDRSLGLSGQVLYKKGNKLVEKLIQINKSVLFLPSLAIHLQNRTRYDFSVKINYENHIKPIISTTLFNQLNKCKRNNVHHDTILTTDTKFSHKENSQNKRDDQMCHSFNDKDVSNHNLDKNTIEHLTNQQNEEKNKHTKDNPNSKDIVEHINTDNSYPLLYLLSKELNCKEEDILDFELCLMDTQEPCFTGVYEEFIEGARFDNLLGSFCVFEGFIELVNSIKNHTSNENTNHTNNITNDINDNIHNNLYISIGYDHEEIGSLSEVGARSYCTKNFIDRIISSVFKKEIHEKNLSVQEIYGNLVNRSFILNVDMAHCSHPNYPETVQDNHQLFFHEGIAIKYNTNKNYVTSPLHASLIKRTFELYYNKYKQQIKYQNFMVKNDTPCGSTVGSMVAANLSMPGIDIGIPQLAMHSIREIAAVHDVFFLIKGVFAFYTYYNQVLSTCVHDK

Assay [18] deals with Procathepsin L (Homo sapiens, UniProt P07711). Description: cathepsin L inhibitors, dose response, counter-screen for M1/M17 aminopeptidase inhibitor project, biochemical, QFRET, 1536-well (AID 2214).
Procathepsin L, sequence (P07711 whole entry): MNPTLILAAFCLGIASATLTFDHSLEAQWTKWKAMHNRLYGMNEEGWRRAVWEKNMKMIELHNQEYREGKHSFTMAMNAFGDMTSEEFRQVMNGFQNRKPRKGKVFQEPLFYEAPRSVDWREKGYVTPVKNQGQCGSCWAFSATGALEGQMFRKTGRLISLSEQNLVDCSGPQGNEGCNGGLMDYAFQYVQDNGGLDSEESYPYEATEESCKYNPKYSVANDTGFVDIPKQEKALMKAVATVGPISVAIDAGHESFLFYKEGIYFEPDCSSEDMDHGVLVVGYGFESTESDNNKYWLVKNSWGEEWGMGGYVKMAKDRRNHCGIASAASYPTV
Assay [19] deals with T5, Aminopeptidase N (Plasmodium falciparum FcB1/Columbia, UniProt O96935).
T5 sequence (O96935 whole entry): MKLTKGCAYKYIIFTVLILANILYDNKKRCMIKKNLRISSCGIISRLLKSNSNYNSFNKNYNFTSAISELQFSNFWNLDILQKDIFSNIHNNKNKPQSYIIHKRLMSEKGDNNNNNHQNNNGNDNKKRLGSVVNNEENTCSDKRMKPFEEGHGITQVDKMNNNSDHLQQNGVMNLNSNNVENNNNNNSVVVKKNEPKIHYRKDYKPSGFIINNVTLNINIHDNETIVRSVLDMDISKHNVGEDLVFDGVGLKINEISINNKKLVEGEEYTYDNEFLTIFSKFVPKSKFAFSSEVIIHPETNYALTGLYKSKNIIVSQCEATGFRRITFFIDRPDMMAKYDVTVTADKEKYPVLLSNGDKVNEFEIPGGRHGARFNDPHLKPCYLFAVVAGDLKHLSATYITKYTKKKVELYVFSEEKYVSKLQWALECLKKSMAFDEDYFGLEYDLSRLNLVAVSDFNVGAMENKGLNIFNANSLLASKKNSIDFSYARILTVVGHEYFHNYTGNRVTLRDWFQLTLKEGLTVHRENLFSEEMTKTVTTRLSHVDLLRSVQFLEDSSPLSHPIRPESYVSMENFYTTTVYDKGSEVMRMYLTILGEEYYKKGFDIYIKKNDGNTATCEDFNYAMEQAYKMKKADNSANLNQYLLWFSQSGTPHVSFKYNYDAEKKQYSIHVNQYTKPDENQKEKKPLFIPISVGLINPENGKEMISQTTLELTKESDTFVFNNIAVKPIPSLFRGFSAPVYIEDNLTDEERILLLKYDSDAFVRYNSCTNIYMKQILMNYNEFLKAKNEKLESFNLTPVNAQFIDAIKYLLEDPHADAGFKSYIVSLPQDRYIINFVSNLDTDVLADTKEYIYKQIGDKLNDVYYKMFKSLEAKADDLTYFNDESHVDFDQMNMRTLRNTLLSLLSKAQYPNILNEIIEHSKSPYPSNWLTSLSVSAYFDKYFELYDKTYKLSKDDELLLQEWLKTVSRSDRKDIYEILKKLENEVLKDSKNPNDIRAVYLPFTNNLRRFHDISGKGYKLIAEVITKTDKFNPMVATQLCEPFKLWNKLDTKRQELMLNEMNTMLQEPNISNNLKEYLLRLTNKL
Description: P. falciparum M1AAP inhibitors, biochemical, fluorogenic H-Leu-NHMec substrate, 1536-well (AID 1445). On the set-up: species or system Plasmodium falciparum 3D7, 3D7.

In ChEMBL document CHEMBL1201862, “PubChem BioAssay data set” (2004) one finds IC50 and EC50 data, which are given here for 5 compounds.

Molecules are shown by their SMILES. The source made the active and inactive calls.

Bcl-2-like protein 10, sequence (Q9HD36 whole entry): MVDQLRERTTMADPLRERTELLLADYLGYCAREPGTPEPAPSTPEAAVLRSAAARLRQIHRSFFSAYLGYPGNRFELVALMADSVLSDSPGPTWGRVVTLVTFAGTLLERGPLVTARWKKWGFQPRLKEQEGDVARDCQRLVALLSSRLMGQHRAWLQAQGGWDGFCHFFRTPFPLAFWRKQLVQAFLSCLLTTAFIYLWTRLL

Consider `CCOC(=O)c1ccc(NC(=O)c2nnc(O)c3ccccc23)cc1`, for which the IC50 (as a rule, the concentration needed to halve the response being measured) in [1] is > 100 µM (active).

Consider `COC(=O)c1ccc(COc2ccc(/C=C(\C#N)c3nc4ccccc4[nH]3)cc2OC)o1`, for which the EC50 – broadly, the concentration needed to bring the measured effect to its halfway point – is 88.4 µM (active) in [2]; > 160 µM (inconclusive) in assay [5]; > 180 µM (inactive) in assay [6]; > 300 µM (not active) in assay [7]; > 300 µM (not active) in [9]; > 160 µM (inactive) in [11]. Also, the values for the EC50 in assay [12] and in assay [13] were 3.83 µM (active) and 79.7 µM (active), respectively. The IC50 in [3] is > 69.5 µM (not active); in [4], 4.93 µM (active); in [8], > 100 µM (inactive); in assay [10] it was 11.4 µM (active).

As for `N#Cc1ccccc1N1CCN(C(=O)CCCCCn2c(=S)[nH]c3ccccc3c2=O)CC1`, the IC50 in assay [14] is 0.957 µM (not active); in [15] it was 0.09 µM (not active).

`Cc1ccc(C)n1-c1cc(C(=O)O)cc(C(=O)O)c1`: the EC50 in assay [16] is 0.54 µM (active).

For `O=C(NCCC1=CCCCC1)C1CCN(S(=O)(=O)c2ccc(Br)s2)CC1`, the IC50 in assay [17] is > 73.5 µM (not active); in assay [18], > 59.6 µM (not active); in assay [19] it was 13.2 µM (active).
